Experimental findings from US20250215012A1, “IKZF2 DEGRADERS AND USES THEREOF” (REGENTS OF THE UNIVERSITY OF MICHIGAN, priority 2022, published 2025) are described below.

The test addresses IKZF2 (Homo sapiens (Human), UniProt Q96SW2+Q9UKS7). The test is described as follows: IKZF2 HiBiT Assay (Jurkat-IKZF2-HiBiT cell line). It counts as cell-based. The following applies: Jurkat-IKZF2-HiBiT cells, 24 hours; for Dmax: read-out: HiBit assay degradation analysis Dmax; for DC50: read-out: HiBit assay degradation analysis DC50. In a few lines: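 IKZF2 degradation was assessed as HiBiT luminescence in Jurkat-IKZF2-HiBiT cells, using lytic detection after 24 h of compound treatment at 37 °C, 5% CO2.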
(With HiBiT, luminescence reflects the tagged protein that the partner subunit can reach.)

Broadly, the Dmax is the greatest extent of degradation seen. The term DC50 denotes the concentration at which degradation of the target reaches its halfway point.

Some results are limits rather than exact numbers.

Chain of IKZF2 (Q9UKS7 whole entry): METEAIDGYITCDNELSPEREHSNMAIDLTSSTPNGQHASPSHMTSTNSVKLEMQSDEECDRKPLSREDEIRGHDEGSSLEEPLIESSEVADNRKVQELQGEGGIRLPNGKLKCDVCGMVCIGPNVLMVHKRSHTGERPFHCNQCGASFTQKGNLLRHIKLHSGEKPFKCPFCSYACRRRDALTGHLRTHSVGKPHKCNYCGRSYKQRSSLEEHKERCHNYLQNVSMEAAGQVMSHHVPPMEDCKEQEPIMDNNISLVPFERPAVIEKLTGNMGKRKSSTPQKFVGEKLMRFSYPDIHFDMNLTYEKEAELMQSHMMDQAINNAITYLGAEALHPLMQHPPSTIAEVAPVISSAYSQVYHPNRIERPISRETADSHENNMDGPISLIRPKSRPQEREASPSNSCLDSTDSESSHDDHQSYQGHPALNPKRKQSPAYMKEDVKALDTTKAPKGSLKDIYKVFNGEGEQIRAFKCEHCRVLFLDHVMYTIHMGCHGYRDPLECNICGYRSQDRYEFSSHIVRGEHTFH
Chain of IKZF2 (Q96SW2 whole entry): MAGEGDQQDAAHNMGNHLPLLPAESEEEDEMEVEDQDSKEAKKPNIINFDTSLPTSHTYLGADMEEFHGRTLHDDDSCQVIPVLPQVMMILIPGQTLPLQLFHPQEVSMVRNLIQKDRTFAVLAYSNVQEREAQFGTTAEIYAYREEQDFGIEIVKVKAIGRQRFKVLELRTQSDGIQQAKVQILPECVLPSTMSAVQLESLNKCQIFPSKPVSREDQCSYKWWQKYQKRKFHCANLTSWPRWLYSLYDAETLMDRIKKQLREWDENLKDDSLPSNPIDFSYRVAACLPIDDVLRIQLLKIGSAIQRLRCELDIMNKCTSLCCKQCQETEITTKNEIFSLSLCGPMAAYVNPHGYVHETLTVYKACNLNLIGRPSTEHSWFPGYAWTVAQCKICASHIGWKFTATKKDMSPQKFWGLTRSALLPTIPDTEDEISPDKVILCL
Chain of IKZF2 (Q16531 whole entry partner): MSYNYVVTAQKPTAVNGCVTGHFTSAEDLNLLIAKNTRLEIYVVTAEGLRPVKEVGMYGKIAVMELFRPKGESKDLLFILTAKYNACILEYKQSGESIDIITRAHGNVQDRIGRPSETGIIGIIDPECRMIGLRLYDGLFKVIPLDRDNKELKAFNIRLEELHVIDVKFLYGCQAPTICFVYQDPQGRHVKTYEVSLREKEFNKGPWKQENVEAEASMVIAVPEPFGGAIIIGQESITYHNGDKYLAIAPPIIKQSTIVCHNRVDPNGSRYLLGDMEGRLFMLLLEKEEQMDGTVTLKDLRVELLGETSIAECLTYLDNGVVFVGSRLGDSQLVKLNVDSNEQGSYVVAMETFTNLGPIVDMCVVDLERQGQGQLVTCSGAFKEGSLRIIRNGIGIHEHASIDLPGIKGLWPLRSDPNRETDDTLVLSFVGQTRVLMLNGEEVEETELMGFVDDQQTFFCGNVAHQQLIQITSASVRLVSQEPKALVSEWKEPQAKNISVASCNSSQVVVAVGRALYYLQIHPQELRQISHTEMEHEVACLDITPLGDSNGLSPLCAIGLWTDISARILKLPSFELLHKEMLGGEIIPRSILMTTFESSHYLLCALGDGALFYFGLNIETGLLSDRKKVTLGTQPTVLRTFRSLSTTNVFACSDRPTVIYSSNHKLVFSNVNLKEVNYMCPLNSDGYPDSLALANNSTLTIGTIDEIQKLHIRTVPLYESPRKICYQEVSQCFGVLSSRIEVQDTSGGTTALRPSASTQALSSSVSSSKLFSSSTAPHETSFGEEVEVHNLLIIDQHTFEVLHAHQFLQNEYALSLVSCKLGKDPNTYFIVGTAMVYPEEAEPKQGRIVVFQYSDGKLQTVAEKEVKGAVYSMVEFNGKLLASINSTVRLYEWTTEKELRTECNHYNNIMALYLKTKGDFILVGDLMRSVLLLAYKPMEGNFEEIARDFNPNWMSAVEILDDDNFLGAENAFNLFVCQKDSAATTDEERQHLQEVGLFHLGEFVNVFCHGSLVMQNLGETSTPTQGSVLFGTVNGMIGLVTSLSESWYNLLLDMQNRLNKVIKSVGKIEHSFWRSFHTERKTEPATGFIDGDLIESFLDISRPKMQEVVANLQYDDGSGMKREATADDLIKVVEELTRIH

Take `O=C1CC[C@H](N2Cc3c(ccc4c3OCC43CCN(Cc4cnn(S(=O)(=O)c5cccc(Cl)c5)c4)CC3)C2=O)C(=O)N1` [Compound A350, (S)-3-(1′-((1-((3-chlorophenyl)sulfonyl)-1H-pyrazol-4-yl)methyl)-6-oxo-6,8-dihydro-2H,7H-spiro[furo[2,3-e]isoindole-3,4′-piperidin]-7-yl)piperidine-2,6-dione]: the Dmax lay within 60 to 80%.

For `O=C1CCC(N2Cc3c(ccc4c3OCC43CCN(CC4CCCc5ccccc54)CC3)C2=O)C(=O)N1` (stereo not drawn) [Compound A21, 3-(6-oxo-1′-((1,2,3,4-tetrahydronaphthalen-1-yl)methyl)-6,8-dihydro-2H,7H-spiro[furo[2,3-e]isoindole-3,4′-piperidin]-7-yl)piperidine-2,6-dione], the DC50 is over 500 nM and the Dmax lay within 60 to 80%.

As for `CN(C)C(=O)c1ccc(CN2CCC3(CC2)COc2c3ccc3c2CN(C2CCC(=O)NC2=O)C3=O)cc1` (stereo not drawn) [Compound A201, 4-((7-(2,6-dioxopiperidin-3-yl)-6-oxo-7,8-dihydro-2H,6H-spiro[furo[2,3-e]isoindole-3,4′-piperidin]-1′-yl)methyl)-N,N-dimethylbenzamide], the DC50 is over 500 nM and the Dmax was under 40%.

On to `O=C1CCC(N2Cc3c(ccc4c3OCC43CCN(Cc4cnn(S(=O)(=O)c5cccc(Cl)c5)c4)CC3)C2=O)C(=O)N1` [Compound A350, (S)-3-(1′-((1-((3-chlorophenyl)sulfonyl)-1H-pyrazol-4-yl)methyl)-6-oxo-6,8-dihydro-2H,7H-spiro[furo[2,3-e]isoindole-3,4′-piperidin]-7-yl)piperidine-2,6-dione], for which the DC50 was under 50 nM.

`Cc1c(-c2cccc(CN3CCC4(CC3)COc3c4ccc4c3CN([C@H]3CCC(=O)NC3=O)C4=O)c2)cnn1C` [Compound A284, (S)-3-(1′-(3-(1,5-dimethyl-1H-pyrazol-4-yl)benzyl)-6-oxo-6,8-dihydro-2H,7H-spiro[furo[2,3-e]isoindole-3,4′-piperidin]-7-yl)piperidine-2,6-dione]: the DC50 is under 50 nM and the maximal degradation (Dmax) was 60 to 80%.

Turning to `CC1(C)CCc2cccc(CN3CCC4(CC3)COc3c4ccc4c3CN(C3CCC(=O)NC3=O)C4=O)c2O1` (stereo not drawn) [Compound A327, 3-(1′-((2,2-dimethylchroman-8-yl)methyl)-6-oxo-6,8-dihydro-2H,7H-spiro[furo[2,3-e]isoindole-3,4′-piperidin]-7-yl)piperidine-2,6-dione], the DC50 is 50 to 200 nM and the Dmax is 60 to 80%.

Consider `Cc1ccc(C(=O)Nc2cccc(CN3CCC4(CC3)OCc3c4ccc4c3CN(C3CCC(=O)NC3=O)C4=O)c2)cc1` (stereo not drawn) [Compound A263, N-(3-((7-(2,6-dioxopiperidin-3-yl)-6-oxo-1,6,7,8-tetrahydrospiro[furo[3,4-e]isoindole-3,4′-piperidin]-1′-yl)methyl)phenyl)-4-methylbenzamide], for which the DC50 is under 50 nM and the Dmax fell in the range of 60 to 80%.

Consider `O=C1CCC(N2Cc3c(ccc4c3OCC43CCN(Cc4ccc5[nH]cnc5c4)CC3)C2=O)C(=O)N1` (stereo not drawn) [Compound A70, 3-(1′-((1H-benzo[d]imidazol-5-yl)methyl)-6-oxo-6,8-dihydro-2H,7H-spiro[furo[2,3-e]isoindole-3,4′-piperidin]-7-yl)piperidine-2,6-dione], for which the DC50 is 200 to 500 nM and the Dmax lay in the range of 60 to 80%.

Turning to `O=C1CC[C@H](N2Cc3c(ccc4c3OCC43CCN(Cc4cnn(S(=O)(=O)c5ccccc5Cl)c4)CC3)C2=O)C(=O)N1` [Compound A349, (S)-3-(1′-((1-((2-chlorophenyl)sulfonyl)-1H-pyrazol-4-yl)methyl)-6-oxo-6,8-dihydro-2H,7H-spiro[furo[2,3-e]isoindole-3,4′-piperidin]-7-yl)piperidine-2,6-dione], the DC50 is under 50 nM and the Dmax lay within 60 to 80%.

On to `O=C1CCC(N2Cc3c(ccc4c3OCC43CCN(Cc4cccc5ccsc45)CC3)C2=O)C(=O)N1` (stereo not drawn) [Compound A189, 3-(1′-(benzo[b]thiophen-7-ylmethyl)-6-oxo-6,8-dihydro-2H,7H-spiro[furo[2,3-e]isoindole-3,4′-piperidin]-7-yl)piperidine-2,6-dione], for which the DC50 was 50 to 200 nM and the greatest degradation seen (Dmax) lay in the range of 60 to 80%.

Turning to `O=C1CC[C@H](N2Cc3c(ccc4c3OCC43CCN(Cc4cnn(C[C@H]5C[C@@H]5c5ccccc5)c4)CC3)C2=O)C(=O)N1` [Compound A347, (S)-3-(6-oxo-1′-((1-(((1S,2S)-2-phenylcyclopropyl)methyl)-1H-pyrazol-4-yl)methyl)-6,8-dihydro-2H,7H-spiro[furo[2,3-e]isoindole-3,4′-piperidin]-7-yl)piperidine-2,6-dione], the Dmax was 60 to 80%.

Consider `O=C1CCC(N2Cc3c(ccc4c3OCC43CCN(Cc4csc5ccccc45)CC3)C2=O)C(=O)N1` (stereo not drawn) [Compound A185, 3-(1′-(benzo[b]thiophen-3-ylmethyl)-6-oxo-6,8-dihydro-2H,7H-spiro[furo[2,3-e]isoindole-3,4′-piperidin]-7-yl)piperidine-2,6-dione], for which the DC50 is under 50 nM and the Dmax is 60 to 80%.

As for `CNC(=O)c1cccc(CN2CCC3(CC2)COc2c3ccc3c2CN(C2CCC(=O)NC2=O)C3=O)c1` (stereo not drawn) [Compound A95], the DC50 was over 500 nM and the Dmax is 40 to 60%.

`O=C1CCC(N2Cc3c(ccc4c3OCC43CCN(Cc4ccnc5ccccc45)CC3)C2=O)C(=O)N1` (stereo not drawn) [Compound A44, 3-(6-oxo-1′-(quinolin-4-ylmethyl)-6,8-dihydro-2H,7H-spiro[furo[2,3-e]isoindole-3,4′-piperidin]-7-yl)piperidine-2,6-dione]: the DC50 was over 500 nM and the Dmax is under 40%.

As to `O=C1CCC(N2Cc3c(ccc4c3OCC43CCN(Cc4cccc5occc45)CC3)C2=O)C(=O)N1` (stereo not drawn) [Compound A119, 3-(1′-(benzofuran-4-ylmethyl)-6-oxo-6,8-dihydro-2H,7H-spiro[furo[2,3-e]isoindole-3,4′-piperidin]-7-yl)piperidine-2,6-dione], the DC50 was under 50 nM and the Dmax lay within 60 to 80%.

On to `O=C1CCC(N2Cc3c(ccc4c3OCC43CCN(Cc4ccnn4C4CCOCC4)CC3)C2=O)C(=O)N1` (stereo not drawn) [Compound A255, 3-(6-oxo-1′-((1-(tetrahydro-2H-pyran-4-yl)-1H-pyrazol-5-yl)methyl)-6,8-dihydro-2H,7H-spiro[furo[2,3-e]isoindole-3,4′-piperidin]-7-yl)piperidine-2,6-dione], for which the DC50 is over 500 nM and the Dmax was under 40%.

For `O=C1CC[C@H](N2Cc3c(ccc4c3OCC43CCN(CC4CCCN(C(=O)c5ccccc5)C4)CC3)C2=O)C(=O)N1` (stereo partly drawn) [Compound A305, (3S)-3-(1′-((1-benzoylpiperidin-3-yl)methyl)-6-oxo-6,8-dihydro-2H,7H-spiro[furo[2,3-e]isoindole-3,4′-piperidin]-7-yl)piperidine-2,6-dione], the DC50 is over 500 nM and the Dmax was in the range of 40 to 60%.

Take `O=C1CCC(N2Cc3c(ccc4c3OCC43CCN(Cc4cnn(-c5cccc(F)c5)c4)CC3)C2=O)C(=O)N1` (stereo not drawn) [Compound A311, 3-(1′-((1-(3-fluorophenyl)-1H-pyrazol-4-yl)methyl)-6-oxo-6,8-dihydro-2H,7H-spiro[furo[2,3-e]isoindole-3,4′-piperidin]-7-yl)piperidine-2,6-dione]: the half-maximal degradation concentration (DC50) is over 500 nM and the Dmax lay within 40 to 60%.

For `CO[C@H]1C[C@H](n2cc(-c3cccc(CN4CCC5(CC4)COc4c5ccc5c4CN([C@H]4CCC(=O)NC4=O)C5=O)c3)cn2)C1` [Compound A297, (S)-3-(1′-(3-(1-((1r,3r)-3-methoxycyclobutyl)-1H-pyrazol-4-yl)benzyl)-6-oxo-6,8-dihydro-2H,7H-spiro[furo[2,3-e]isoindole-3,4′-piperidin]-7-yl)piperidine-2,6-dione], the DC50 was under 50 nM and the greatest degradation seen (Dmax) was in the range of 60 to 80%.

`O=C1CCC(N2Cc3c(ccc4c3OCC43CCN(CC4(c5ccccc5)CC4)CC3)C2=O)C(=O)N1` (stereo not drawn) [Compound A333, 3-(6-oxo-1′-((1-phenylcyclopropyl)methyl)-6,8-dihydro-2H,7H-spiro[furo[2,3-e]isoindole-3,4′-piperidin]-7-yl)piperidine-2,6-dione]: the 50% degradation concentration (DC50) was over 500 nM and the Dmax was in the range of 40 to 60%.

Turning to `O=C1CCC(N2Cc3c(ccc4c3OCC43CCN(Cc4cccc(C(F)F)c4)CC3)C2=O)C(=O)N1` (stereo not drawn) [Compound A94, 3-(1′-(3-(difluoromethyl)benzyl)-6-oxo-6,8-dihydro-2H,7H-spiro[furo[2,3-e]isoindole-3,4′-piperidin]-7-yl)piperidine-2,6-dione], the 50% degradation concentration (DC50) fell in the range of 200 to 500 nM and the Dmax was in the range of 40 to 60%.

As to `COc1ccccc1CN1CCC2(CC1)COc1c2ccc2c1CN(C1CCC(=O)NC1=O)C2=O` (stereo not drawn) [Compound A215, 3-(1′-(2-methoxybenzyl)-6-oxo-6,8-dihydro-2H,7H-spiro[furo[2,3-e]isoindole-3,4′-piperidin]-7-yl)piperidine-2,6-dione], the DC50 lay within 200 to 500 nM and the Dmax lay within 40 to 60%.

With `O=C1CCC(N2Cc3c(ccc4c3OCC43CCN(Cc4ccccc4-n4ccnc4)CC3)C2=O)C(=O)N1` (stereo not drawn) [Compound A149, 3-(1′-(2-(1H-imidazol-1-yl)benzyl)-6-oxo-6,8-dihydro-2H,7H-spiro[furo[2,3-e]isoindole-3,4′-piperidin]-7-yl)piperidine-2,6-dione], the DC50 is over 500 nM and the Dmax is under 40%.

As for `O=C1CCC(N2Cc3c(ccc4c3OCC43CCN(Cc4cnn(-c5ccccc5)c4)CC3)C2=O)C(=O)N1` (stereo not drawn) [Compound A221, 3-(6-oxo-1′-((1-phenyl-1H-pyrazol-4-yl)methyl)-6,8-dihydro-2H,7H-spiro[furo[2,3-e]isoindole-3,4′-piperidin]-7-yl)piperidine-2,6-dione], the DC50 is over 500 nM and the Dmax lay within 40 to 60%.
